Data on four compounds can be found in patent US5846731A, “Peralkylated oligopeptide mixtures” (Torry Pines Institute for Molecular Studies, priority 1993, dated 1998).

In brackets after ≈: the same amount, converted by molar mass.

Broadly, the MIC is the smallest concentration in the dilution series that meets the test's criterion for growth inhibition. A higher MIC goes with a less susceptible organism. The IC50 is the concentration at which inhibition is half-maximal. High values mean a need for much substance, low ones inhibition by little substance.

In this assay the test system is Staphylococcus aureus (ATCC 29213). As to the kind of experiment: Antimicrobial activity against S. aureus (growth inhibition, OD 620 nm). Type of assay: cell-based. The settings on record: for MIC: minimum concentration to inhibit about 100 percent bacterial growth; for IC50: individual permethylated peptides. The procedure:
The two types of libraries of positional libraries of Example 5 were also scanned against Staphylococcus aureus a Gram-positive bacterium. Concentrations of those 5× permethylated peptide mixtures that inhibited cellular growth by 50 percent (IC50) values were determined.
The permethylated amino acid and peptides were screened against S. aureus, as described before and IC50 and MIC (minimum inhibitory concentration; minimum concentration needed to inhibit about 100 percent bacterial growth) values were determined.
Staphylococcus aureus (ATCC 29213) were grown overnight (about 18 hours) at 37° C. in Mueller-Hinton (MH) broth. This culture was reinoculated and incubated at 37° C. to reach the exponential phase of bacterial growth; i.e., a final bacterial suspension containing about 10^5 to 5×10^5 colony-forming units (CFU)/ml. The concentration of cells was established by plating 100 μl of different dilutions of the culture solution (e.g., 10^-2, 10^-3 and 10^-4) onto solid agar plates. Following an overnight (about 18 hours) incubation at 37° C., the CFU thus formed were counted on each agar plate.
96-Well tissue culture plates were utilized, with eight wells per plate containing only medium as control blanks, whereas eight other wells contained medium plus cells as a positive growth control. These controls were used to detect possible medium contamination and to provide a measure of uninhibited growth of the microorganisms.
For determination of IC50 values (concentrations necessary to inhibit 50 percent growth of bacteria), peralkylated oligopeptide sets were added to the bacterial suspension at concentrations noted before. The plates were incubated overnight (about 18 hours) at 37° C., and the optical density (OD) determined at 620 nm after different times of incubation. IC50 Values were then determined from the OD data.

Setting [1] is: Staphylococcus aureus, ATCC29213, Assay 1.
Setting [2] is: Staphylococcus aureus, ATCC29213, Assay 2.

For the compound `CC[C@H]1OC(=O)[C@H](C)[C@@H](O[C@H]2C[C@@](C)(OC)[C@@H](O)[C@H](C)O2)[C@H](C)[C@@H](O[C@@H]2O[C@H](C)C[C@H](N(C)C)[C@H]2O)[C@](C)(O)C[C@@H](C)C(=O)[C@H](C)[C@@H](O)[C@]1(C)O` [Erythromycin, erythromycin], the MIC turned out to be 0.5 µM (≈ 0.367 µg/mL) (Assay 2) and 0.5 µM (≈ 0.367 µg/mL) under setting [1]. Moreover, the IC50 runs as follows: under setting [1], 184 nM; under setting [2], 134 nM.

In the case of `Cc1onc(-c2ccccc2)c1C(=O)N[C@@H]1C(=O)N2[C@@H]1SC(C)(C)[C@@H]2C(=O)O` [Oxacillin, oxacillin], the MIC by setting is: (Assay 2) 0.125 µM (≈ 0.0502 µg/mL); under setting [1], 0.125 µM (≈ 0.0502 µg/mL). Further, the IC50 is 42 nM under setting [1] and 370 nM under setting [2].

`CNC(=O)[C@H](Cc1ccccc1)[N+](C)(C)C` [PerA--F, permethylated Phe N-methylamide]: the MIC was more than 500 µM (Assay 1) and more than 500 µM (Assay 2).

Regarding “Ac-FFFFFF-NH2 [N--Ac--hexaPhe, N-acetyl hexaPhe amide]”, under “Assay 1”, the IC50 is more than 500000 nM and the MIC is reported as more than 500 µM. In addition, where the note is “Assay 2”, the IC50 was more than 500000 nM and the MIC is given as more than 500 µM.
